Data from US10245330B2, “Compositions and methods for imaging” (The Regents of the University of California, priority 2010, dated 2019).

Assay: Solubility in water
Type: physicochemical
Method: ^13C-BFA has suitable properties for polarization by DNP in that it is soluble forming >5 M solutions in water and readily forms a glass upon flash freezing. A 5 M solution of ^13C-BFA in water was prepared with 15 mM OXO63 radical and polarized by DNP by irradiating at 90940 MHz. A buildup time constant of 830 s provided ˜5% polarization (5450-fold enhancement factor) after 45 minutes. The spectroscopic detection of H2O2 of the probe was accomplished by rapidly dissolving polarized samples of ^13C-BFA in 100 mM phosphate buffer at pH 7.8 to a final concentration of 5 mM, followed by reaction with various concentrations of hydrogen peroxide.

O=C(c1ccccc1)[13C](=O)O [^13C-BFA, ^13C-benzoylformic acid]
solubility (solutions in water): > 5000 mM
